We go through one compound from patent US12590100B2, “Tetrahydro-spiroindoline-pyrrolopyrrole-triones inhibitors of the NRF2-β-TrCP interaction for use in the treatment of fatty liver disease” (Universidad Autonoma De Madrid, priority 2021, dated 2026).

The data set in a line: HPLC-MS detection of PHAR in liver after IP injection. In kind it is in vivo, mouse. Particulars: mice, single IP 50 mg/kg, 120 min. As to the method: FIG. 9. PHAR activates NRF2 and HO-1 in liver. A), UV and MS spectrum derived from the HPLC-MS analysis of PHAR dissolved in methanol for the identification of peaks associated with the compound. A blue rectangle surrounds the mass associated with PHAR. (B-D), the mice were treated with the vehicle (Tween-80+PBS, 1:13), 50 mg/kg of PHAR, or 50 mg/kg of SFN (saline) as a positive control by means of intraperitoneal (IP) injection for 2 hours. B), HPLC-MS UV and MS spectra derived from representative liver samples of both experimental groups used for determining PHAR levels in the liver 120 min after a single IP injection of 50 mg/kg. A blue rectangle surrounds the mass associated with PHAR. C), representative immunoblots showing NRF2, HO1, and LAMINB protein levels as the liver extract loading control. D), densitometric analysis of NRF2 protein levels of the representative immunoblots shown in (C), expressed as a ratio of NRF2/LAMINB. Statistical analysis was performed with one-way ANOVA followed by the Bonferroni test to compare inter-group differences. ***p<0.001 vs. vehicle. […] F), densitometric analysis of NRF2 and HO1 protein levels in the liver tissue of the representative immunoblots shown in (E), expressed as a ratio of NRF2/LAMINB or HO1/LAMINB levels. […]
Once the mechanism of action of PHAR was deciphered, the capacity thereof to induce NRF2 levels in a murine model was evaluated. […]

With `O=C1[C@@H]2[C@H](Cc3c[nH]c4ccccc34)N[C@]3(C(=O)Nc4ccc(Cl)cc43)[C@@H]2C(=O)N1c1ccc2c(c1)OCCO2` [PHAR], the “presence of PHAR in liver tissue (HPLC-MS)” value is on record as “corresponded with the presence of the compound”.
